# Earlier results in patent US20140230258A1, “COMPACT HAND HELD DEVICE” (The Gillette Company, priority 2013, published 2014).
# Settings: organism not stated
smiles,measurement,value
"CCCCCCCCn1sc(Cl)c(Cl)c1=O [4,5-dichloro-2-n-octyl-4-isothiazolin-3-one]",MIC,about 50 ppm
